Test results as given in patent US8377884B2, “Variants of C-type natriuretic peptides” (Biomarin Pharmaceutical Inc., priority 2007, dated 2013).
Read-outs that look alike come from different tables or passages of the source. Bridge positions count the residues as written; N and C are the ends. Ends that are not written are not given here. Peptide text beside a SMILES is read from it.

How the values were obtained:
NPR-B = target: T1, NPR-B (Mus musculus, UniProt Q6VVW5); test: Stimulation of cGMP production in NIH3T3 cells; type: cell-based, Murine; conditions: for cGMP response relative to 1 uM CNP22 (%) at 0.01 µM: read-out: cGMP Response rel. to 1 uM CNP22, 10 nM; for cGMP response relative to 1 uM CNP22 (%) at 1 µM: read-out: cGMP Response rel. to 1 uM CNP22, 1 uM
T1 construct: Murine NIH3T3 cells express endogenously the CNP signaling receptor, NPR-B; endogenous in cells; host or cells: NIH3T3 (murine fibroblasts)
T1 sequence (Q6VVW5 17-1047): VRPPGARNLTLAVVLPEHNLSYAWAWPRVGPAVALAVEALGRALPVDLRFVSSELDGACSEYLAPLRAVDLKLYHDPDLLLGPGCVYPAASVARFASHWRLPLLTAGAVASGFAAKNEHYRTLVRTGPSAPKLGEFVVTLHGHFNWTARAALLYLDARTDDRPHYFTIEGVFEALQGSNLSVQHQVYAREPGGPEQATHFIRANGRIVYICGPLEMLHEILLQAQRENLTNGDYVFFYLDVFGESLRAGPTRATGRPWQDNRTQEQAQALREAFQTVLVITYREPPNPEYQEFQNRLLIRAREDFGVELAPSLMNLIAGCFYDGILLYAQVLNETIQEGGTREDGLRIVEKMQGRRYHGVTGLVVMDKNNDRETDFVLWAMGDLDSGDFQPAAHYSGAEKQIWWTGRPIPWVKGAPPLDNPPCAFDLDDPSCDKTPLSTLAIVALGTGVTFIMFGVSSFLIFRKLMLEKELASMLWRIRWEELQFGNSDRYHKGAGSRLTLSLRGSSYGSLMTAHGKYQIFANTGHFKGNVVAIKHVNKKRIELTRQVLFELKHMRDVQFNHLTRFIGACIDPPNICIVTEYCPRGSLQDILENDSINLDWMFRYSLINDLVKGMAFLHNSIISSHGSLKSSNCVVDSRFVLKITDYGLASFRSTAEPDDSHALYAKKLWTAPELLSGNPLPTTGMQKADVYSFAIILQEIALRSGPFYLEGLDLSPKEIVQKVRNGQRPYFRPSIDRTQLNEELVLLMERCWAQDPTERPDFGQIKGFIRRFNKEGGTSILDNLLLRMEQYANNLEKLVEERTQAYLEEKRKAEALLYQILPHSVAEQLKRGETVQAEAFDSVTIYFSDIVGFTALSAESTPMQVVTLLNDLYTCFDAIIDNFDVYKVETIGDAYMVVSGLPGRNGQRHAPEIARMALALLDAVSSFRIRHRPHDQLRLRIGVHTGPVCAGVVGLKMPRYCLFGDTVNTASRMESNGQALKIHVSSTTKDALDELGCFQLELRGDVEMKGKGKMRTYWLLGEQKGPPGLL

[1] = target: neutral endopeptidase (NEP) (Homo sapiens, UniProt P08473); test: in vitro; conditions: human, pH 7
Protocol: To determine the effects of amino acid substitutions, amino acid extensions, backbone modifications, side chain modifications and PEGylation on the susceptibility of CNP variants to neutral endopeptidase (NEP) cleavage, peptide cleavage assays were carried out using an in vitro assay that monitored disappearance of the non-cleaved CNP variant.
Recombinant human NEP (1 ug/mL final concentration) was added to 100 uM CNP variant diluted in 0.1 M Tris, pH 7. The reaction mixture was incubated at 37° C. for various periods of time, and the reaction was quenched with EDTA (10 mM final) followed by heat denaturation. The reaction mixture was reduced and then the reaction products were analyzed using HPLC and mass spectroscopy. The half-life of the CNP variant was calculated based on the disappearance of intact CNP variant over time.

[2] = NIH3T3 cells, 10 nM natriuretic peptide, normalized to cell number and cGMP production with 1 uM wtCNP22
[3] = NIH3T3 cells, 1 uM natriuretic peptide, normalized to cell number and cGMP production with 1 uM wtCNP22

Chain of neutral endopeptidase (NEP) (P08473 whole entry): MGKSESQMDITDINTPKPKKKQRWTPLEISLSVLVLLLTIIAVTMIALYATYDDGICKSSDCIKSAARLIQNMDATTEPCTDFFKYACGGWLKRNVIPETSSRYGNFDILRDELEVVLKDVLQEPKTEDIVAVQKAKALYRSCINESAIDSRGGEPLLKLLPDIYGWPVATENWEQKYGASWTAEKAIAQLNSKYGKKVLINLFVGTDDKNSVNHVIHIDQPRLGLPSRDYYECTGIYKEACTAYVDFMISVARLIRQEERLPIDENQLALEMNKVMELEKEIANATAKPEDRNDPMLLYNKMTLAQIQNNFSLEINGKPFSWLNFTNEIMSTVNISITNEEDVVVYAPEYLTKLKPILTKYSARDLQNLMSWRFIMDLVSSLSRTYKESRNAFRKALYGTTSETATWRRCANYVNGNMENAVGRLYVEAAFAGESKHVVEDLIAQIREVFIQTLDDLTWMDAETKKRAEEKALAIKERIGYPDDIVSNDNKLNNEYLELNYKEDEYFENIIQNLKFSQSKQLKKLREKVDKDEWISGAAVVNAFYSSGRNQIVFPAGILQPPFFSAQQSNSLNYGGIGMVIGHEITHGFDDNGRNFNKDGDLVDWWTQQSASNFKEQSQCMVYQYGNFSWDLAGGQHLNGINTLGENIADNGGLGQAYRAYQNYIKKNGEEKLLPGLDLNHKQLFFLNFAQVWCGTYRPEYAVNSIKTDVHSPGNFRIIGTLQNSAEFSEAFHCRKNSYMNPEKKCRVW

Row | Compound | cGMP Response rel. to 1 uM CNP22, 10 nM (NPR-B; [2]) | cGMP Response rel. to 1 uM CNP22, 1 uM (NPR-B; [3]) | half-life at 100 uM [1] | cGMP response relative to 1 uM CNP22 (%) at 0.01 µM (NPR-B; [2]) | cGMP response relative to 1 uM CNP22 (%) at 1 µM (NPR-B; [3]) | cGMP response relative to 1 uM CNP22 (%) at 0.01 µM (NPR-B; NIH3T3, […]) | cGMP response relative to 1 uM CNP22 (%) at 1 µM (NPR-B; NIH3T3, […])
1 | CC[C@H](C)[C@@H]1NC(=O)[C@H](CCCNC(=N)N)NC(=O)[C@H](CC(=O)O)NC(=O)[C@H](CC(C)C)NC(=O)[C@H](CCCCN)NC(=O)[C@H](CC(C)C)NC(=O)CNC(=O)[C@H](Cc2ccccc2)NC(=O)[C@@H](NC(=O)CNC(=O)[C@H](CCCCN)NC(=O)[C@H](CO)NC(=O)[C@H](CC(C)C)NC(=O)CNC(=O)[C@H](CCCCN)NC(=O)[C@H](CCCCN)NC(=O)[C@H](CC(N)=O)NC(=O)[C@H](C)NC(=O)CNC(=O)[C@H](CCCCN)NC(=O)[C@H](Cc2ccc(O)cc2)NC(=O)[C@H](CCCCN)NC(=O)[C@H](CCCNC(=N)N)NC(=O)[C@H](C)NC(=O)[C@H](CC(N)=O)NC(=O)[C@@H]2CCCN2C(=O)[C@H](Cc2c[nH]cn2)NC(=O)[C@H](CCC(=O)O)NC(=O)[C@@H](N)CCC(N)=O)CSSC[C@@H](C(=O)O)NC(=O)CNC(=O)[C@H](CC(C)C)NC(=O)CNC(=O)[C@H](CO)NC(=O)[C@H](CCSC)NC(=O)[C@H](CO)NC(=O)CNC1=O [BL] | 43 ± 15 | 97 ± 27 | > 2.67 h | – | – | – | –
2 | CC[C@H](C)[C@@H]1NC(=O)[C@H](CCCNC(=N)N)NC(=O)[C@H](CC(=O)O)NC(=O)[C@H](CC(C)C)NC(=O)[C@H](CCCCN)NC(=O)[C@H](CC(C)C)NC(=O)CNC(=O)[C@H](Cc2ccccc2)NC(=O)[C@@H](NC(=O)CNC(=O)[C@H](CCCCN)NC(=O)[C@H](CO)NC(=O)[C@H](CC(C)C)NC(=O)CNC(=O)[C@H](CCCNC(=N)N)NC(=O)[C@H](C)NC(=O)[C@H](Cc2c[nH]c3ccccc23)NC(=O)[C@H](C)NC(=O)[C@H](C)NC(=O)[C@H](CCCNC(=N)N)NC(=O)[C@H](CO)NC(=O)[C@H](CCCCN)NC(=O)[C@@H](NC(=O)[C@H](CC(=O)O)NC(=O)[C@@H](NC(=O)[C@H](CCCNC(=N)N)NC(=O)[C@H](CC(C)C)NC(=O)[C@@H](N)CC(=O)O)C(C)C)[C@@H](C)O)CSSC[C@@H](C(=O)O)NC(=O)CNC(=O)[C@H](CC(C)C)NC(=O)CNC(=O)[C@H](CO)NC(=O)[C@H](CCSC)NC(=O)[C@H](CO)NC(=O)CNC1=O [CC] (H-DLRVDTKSRAAWARGLSKGCFGLKLDRIGSMSGLGC-OH; disulfide 20-36 (inferred); N-terminus and C-terminus assumed) | – | – | > 2.67 h | 34% | 101% | – | –
3 | CC[C@H](C)[C@@H]1NC(=O)[C@H](CCCNC(=N)N)NC(=O)[C@H](CC(=O)O)NC(=O)[C@H](CC(C)C)NC(=O)[C@H](CCCCN)NC(=O)[C@H](CC(C)C)NC(=O)CNC(=O)[C@H](Cc2ccccc2)NC(=O)[C@@H](NC(=O)CNC(=O)[C@H](CCCNC(=N)N)NC(=O)[C@H](CO)NC(=O)[C@H](CC(C)C)NC(=O)CNC(=O)[C@H](CO)NC(=O)[C@H](CO)NC(=O)[C@H](CC(N)=O)NC(=O)[C@H](C)NC(=O)CN)CSSC[C@@H](C(=O)O)NC(=O)CNC(=O)[C@H](CC(C)C)NC(=O)CNC(=O)[C@H](CO)NC(=O)[C@H](CCSC)NC(=O)[C@H](CO)NC(=O)CNC1=O [CG] (H-GANSSGLSRGCFGLKLDRIGSMSGLGC-OH; disulfide 11-27 (inferred); N-terminus and C-terminus assumed) | – | – | 1.58 h | 27 ± 1% | 88 ± 1% | – | –
4 | CC[C@H](C)[C@@H]1NC(=O)[C@H](CCCNC(=N)N)NC(=O)[C@H](CC(=O)O)NC(=O)[C@H](CC(C)C)NC(=O)[C@H](CCCCN)NC(=O)[C@H](CC(C)C)NC(=O)CNC(=O)[C@H](Cc2ccccc2)NC(=O)[C@@H](NC(=O)CNC(=O)[C@H](CCCCN)NC(=O)[C@H](CO)NC(=O)[C@H](CC(C)C)NC(=O)CNC(=O)[C@H](CCCCN)NC(=O)[C@@H]2CCCN2C(=O)[C@H](CC(N)=O)NC(=O)[C@H](C)NC(=O)CNC(=O)[C@H](CCCCN)NC(=O)[C@H](Cc2ccc(O)cc2)NC(=O)[C@H](CCCCN)NC(=O)[C@H](CCCNC(=N)N)NC(=O)[C@H](C)NC(=O)[C@H](CC(N)=O)NC(=O)[C@@H]2CCCN2C(=O)[C@H](Cc2c[nH]cn2)NC(=O)[C@H](CCC(=O)O)NC(=O)[C@H](CCC(N)=O)NC(=O)CN)CSSC[C@@H](C(=O)O)NC(=O)CNC(=O)[C@H](CC(C)C)NC(=O)CNC(=O)[C@H](CO)NC(=O)[C@H](CCSC)NC(=O)[C@H](CO)NC(=O)CNC1=O [CS] (H-GQEHPNARKYKGANPKGLSKGCFGLKLDRIGSMSGLGC-OH; disulfide 22-38 (inferred); N-terminus and C-terminus assumed) | – | – | > 2.67 h | 19% | 61% | – | –
5 | CC[C@H](C)[C@@H]1NC(=O)[C@H](CCCNC(=N)N)NC(=O)[C@H](CC(=O)O)NC(=O)[C@H](CC(C)C)NC(=O)[C@H](CCCCN)NC(=O)[C@H](CC(C)C)N(C)C(=O)CNC(=O)[C@H](Cc2ccccc2)NC(=O)[C@@H](NC(=O)CNC(=O)[C@H](CCCCN)NC(=O)[C@H](CO)NC(=O)[C@H](CC(C)C)NC(=O)CN)CSSC[C@@H](C(=O)O)NC(=O)CNC(=O)[C@H](CC(C)C)N(C)C(=O)CNC(=O)[C@H](CO)NC(=O)[C@H](CCSC)NC(=O)[C@H](CO)NC(=O)CNC1=O [K] | – | – | 1.33 h | – | – | 1% | 1%
6 | CC[C@H](C)[C@@H]1NC(=O)[C@H](CCCNC(=N)N)NC(=O)[C@H](CC(=O)O)NC(=O)[C@H](CC(C)C)NC(=O)[C@H](CCCCN)NC(=O)[C@H](CC(C)C)NC(=O)CNC(=O)[C@H](Cc2ccccc2)NC(=O)[C@@H](NC(=O)CNC(=O)[C@H](CCCCN)NC(=O)[C@H](CO)NC(=O)[C@H](CC(C)C)NC(=O)CNC(=O)CCCC(=O)NCCOCCOCCOCCOCCC(=O)NC(COCCC(=O)NCCOCCOCCOCCOCCOCCOCCOCCOCCOCCOCCOCCOC)(COCCC(=O)NCCOCCOCCOCCOCCOCCOCCOCCOCCOCCOCCOCCOC)COCCC(=O)NCCOCCOCCOCCOCCOCCOCCOCCOCCOCCOCCOCCOC)CSSC[C@@H](C(=O)O)NC(=O)CNC(=O)[C@H](CC(C)C)NC(=O)CNC(=O)[C@H](CO)NC(=O)[C@H](CCSC)NC(=O)[C@H](CO)NC(=O)CNC1=O [PEO4-(PEO12)3 (branched)-CNP22] | – | – | > 2.67 h | 17 ± 1% | 52 ± 6% | – | –
7 | CC[C@H](C)[C@@H]1NC(=O)[C@H](CCCNC(=N)N)NC(=O)[C@H](CC(=O)O)NC(=O)[C@H](CC(C)C)NC(=O)[C@H](CCCCN)NC(=O)[C@H](CC(C)C)NC(=O)CNC(=O)[C@H](Cc2ccccc2)NC(=O)[C@@H](NC(=O)CNC(=O)[C@H](CCCCN)NC(=O)[C@H](CO)NC(=O)[C@H](CC(C)C)NC(=O)CNC(=O)CCOCCOCCOCCOCCOCCOCCOCCOCCOCCOCCOCCOC)CSSC[C@@H](C(=O)O)NC(=O)CNC(=O)[C@H](CC(C)C)NC(=O)CNC(=O)[C@H](CO)NC(=O)[C@H](CCSC)NC(=O)[C@H](CO)NC(=O)CNC1=O [PEO12-CNP22] | – | – | ≥ 2.67 h | 12 ± 7% | 57 ± 18% | – | –
8 | DLRVDTKSRAAWARLLQEHPNARKYKGANKKGLSKGCFGLKLDRIGSMSGLGC (disulfide 37-53) [BM] | – | – | > 2.67 h | 61% | 101% | – | –
